Patent US12722014B2, “Method of treating drug resistant hypertension and heart failure with preserved ejection fraction by combined drug treatment with baropacing and beta blockers” (BaroPace, Inc., priority 2020, dated 2026)

Key:
[1] = Published retrospective and prospective study of BaroPacing by BaroPace's clinical research team; type: in vivo, human; details: current treatment with the beta blocker
Excerpt: Based on the observation that pacemaker implant in patients with drug resistant hypertension (DRH) and heart failure with preserved ejection fraction (HFpEF) lowers blood pressure and improves clinical outcomes, BaroPace, Inc. is developing technology to treat drug resistant hypertension and (HFpEF) by regulating cardiac pacemakers in real time in response to blood pressure (BaroPacing™). […] The BaroPacing research model offers a now-proven cost efficient means of screening ISA drugs such as pindolol and acebutolol to test this hypothesis. If proven true, besides a new patentable indication, such results could lead to a treatment paradigm shift and clinical revitalization of ISA beta blockers.

[2] = Prospective study of BaroPacing (raising right atrial pacing rate) in 14 subjects with hypertension and dual chamber pacemakers; type: in vivo, human; details: 8 patients taking either Metoprolol or Carvedilol vs 6 subjects not taking any beta blockers (p<0.004 in the latter)
Excerpt: I have prospectively studied 14 subjects with hypertension and dual chamber pacemakers, 6 not taking any beta blockers, and 8 taking either metoprolol or carvedilol. […] PressurePacing or BaroPacing is defined to include the algorithmically controlled pacing methodologies and programmable pacemakers as disclosed in PCT/US19/59703; PCT/US20/025447; PCT/US21/42622; and US Provisional filing 63/123,951, each and all incorporated herein by reference.

Structure (SMILES)	beneficial blood pressure lowering effects of BaroPacing [1]	improvement in New York Heart Association Class seen in HFpEF with BaroPacing [1]	significant lowering of systolic blood pressure (>10 mmHg) by BaroPacing [2]
COCCc1ccc(OCC(O)CNC(C)C)cc1 (stereo not drawn) [Metoprolol, metoprolol]	substantially blunts	substantially blunts	lost
COc1ccccc1OCCNCC(O)COc1cccc2[nH]c3ccccc3c12 (stereo not drawn) [Carvedilol]	substantially blunts	substantially blunts	lost
